Data: EP0087858A1, “New chromanone compounds and pharmaceutical compositions containing them” (priority 1982, dated 1983)

Key:
[1] = Acute toxicity; conditions: mouse, in vivo, male dd mice, deaths up to 72 hours
Procedure: Groups of 10 male dd mice weighing some 18 g were orally or intraperitoneally administered the examined drugs and the number of death up to 72 hours later was recorded.
An example of results is shown in Table 1: the drugs are those numbered correspondingly above. Administration is oral (p.o.) or intraperitoneal (i.p.)

[2] = test system: dd mice; assay: Analgesic effects by a modified Haffner method; type: in vivo; conditions: 2 mg/kg morphine hydrochloride s.c. 30 minutes later, tail squeeze
Procedure: Groups of 10 dd mice were orally administered the examined drugs and 30 minutes later 2 mg/kg of morphine hydrochloride, the threshold dose, was injected subcutaneously. At 15, 30, 45 and 60 minutes thereafter, the root of mouse's tail was squeezed with a Kocher's forceps.

[3] = test system: male dd mice; assay: Analgesic effects by acetic acid writhing test; type: in vivo; conditions: inhibition rate of stretching after 0.6% acetic acid i.p.
Procedure: 30 minutes after the examined drugs were given orally, 0.1 ml/10 g of 0.6% acetic acid solution was intraperitoneally administered to groups of 10 male dd mice weighing some 18 g. The number of stretching was calculated during an observation period of 15 to 20 minutes after acetic acid treatment. The average inhibition rate of stretching among 8 animals was regarded as the inhibition rate of the drug, excluding 2 animals showing maximum and minimum number of stretching.

[4] = test system: plantaroedema induced by carrageenin; assay: Inhibition of plantaroedema induced by carrageenin; type: in vivo; conditions: rats, 60 minutes before 0.1 ml of 1% carrageenin into the sole
Procedure: 60 minutes after the drugs had been orally administered to groups of rats, 0.1 ml of 1% carrageenin solution was injected subcutaneously into the sole. The rate of increase in volume of the hind food compared with volume before carrageenin treatment was regarded as oedema rate.

[5] = test system: gastric irritation/ulceration; assay: Gastric irritation; type: in vivo; conditions: rats, 8 hours after dosing, aspirin (150 mg/kg) or indomethacin (40 mg/kg) taken as 100%
Procedure: 8 hours after the examined drugs were orally administered to groups of rats, degree of gastric irritation/ulceration produced by the drug is compared with that produced by aspirin (150 mg/kg) or indomethacin (40 mg/kg). Percentage rate of production of gastric irritation, compared with the control drug, (that produced by aspirin or indomethacin was taken as 100%), was regarded as the gastric irritation rate.

[6] = test system: stomach and intestinal tracts; parameters: species or system rats; conditions: rat, in vivo, po

Row | SMILES | analgesic effect (%) ([2]; 50 mg/kg orally) | analgesic effect (%) ([2]; 100 mg/kg orally) | analgesic effect (%) ([3]; 50 mg/kg orally) | analgesic effect (%) ([3]; 100 mg/kg orally) | oedema rate (%) ([4]; 100 mg/kg orally) | mortality at 72 h ([1]; po, 400 mg/kg p.o.) | oedema rate (%) ([4]; 50 mg/kg orally) | also measured
1 | Cc1c(N(C)C)c(=O)n(-c2ccccc2)n1C [Aminopyrine, reference compound] | 20% | 35% | 17% | 57% | – | – | – | mortality at 72 h ([1]; po, 600 mg/kg p.o.): 20%
2 | O=C(O)Cc1ccc2c(c1)C(=O)CCO2 [Compound 1, (4-chromanon-6-yl) acetic acid] | 15% | 30% | 31% | 45% | – | – | – | –
3 | CC1(C)CC(=O)c2cc(CC(=O)O)ccc2O1 [Compound 2, (2,2-dimethyl-4-chromanon-6-yl) acetic acid] | – | – | 13% | 62% | 46% | – | – | mortality at 72 h ([1]; po, 600 mg/kg p.o.): 0%
4 | CC(C(=O)O)c1cc(Cl)c2c(c1)C(=O)CC(C)(C)O2 (stereo not drawn) [Compound 3, 2-(8-chloro-2,2-dimethyl-4-chromanon-6-yl)propionic acid] | 20% | 25% | 27% | 59% | 48% | 0% | – | –
5 | CC(C(=O)O)c1ccc2c(c1)C(=O)CC(C)(C)O2 (stereo not drawn) [Compound 4, 2-(2,2-dimethyl-4-chromanon-6-yl)propionic acid] | – | – | – | – | – | – | 48% | mortality at 72 h ([1]; ip, 200 mg/kg i.p.): 0%; mortality at 72 h ([1]; po, 300 mg/kg p.o.): 0%; gastric irritation rate(%) ([5]; 50 mg/kg orally): 8%
6 | CC(C(=O)O)c1cc(Cl)c2c(c1)C(=O)CCO2 (stereo not drawn) [Compound 5, 2-(8-chloro-4-chromanon-6-yl)propionic acid] | 20% | 45% | – | – | – | 0% | – | mortality at 72 h ([1]; po, 800 mg/kg p.o.): 0%
7 | CC(C(=O)O)c1ccc2c(c1)C(=O)C(C)(C)O2 (stereo not drawn) [Compound 6, 2-(2,2-dimethyl-2,3-dihydrobenzofuran-3-one-5-yl)propionic acid] | 20% | 40% | – | – | 53% | – | 34% | mortality at 72 h ([1]; ip, 200 mg/kg i.p.): 0%; mortality at 72 h ([1]; po, 300 mg/kg p.o.): 0%; gastric irritation rate(%) ([5]; 100 mg/kg orally): 25%
8 | CC(C)Cc1ccc(C(C)C(=O)O)cc1 (stereo not drawn) [Ibuprofen, reference compound] | – | – | – | – | 54% | – | – | –
9 | CCCCC1C(=O)N(c2ccccc2)N(c2ccccc2)C1=O [Phenylbutazone, reference compound] | – | – | – | – | 50% | 30% | 33% | findings in sections of the stomach and intestinal tracts [6]: mucosal disorder or ulcer formation
